From ChEMBL document CHEMBL1124638, “2,4-Diamino-5-benzylpyrimidines and analogues as antibacterial agents. 10. 2,4-Diamino-5-(6-quinolylmethyl)- and -[(tetrahydro-6-quinolyl)methyl]pyrimidine derivatives. Further specificity studies” (J Med Chem, 1989)
pIC50: −log10 of the molar value. ≈ marks a conversion by molar mass, not a printed value.

What was measured:
[1] = biological target: T1, Dihydrofolate reductase (Rattus norvegicus, UniProt Q920D2); assay: Inhibitory activity against dihydrofolate reductase in rat liver; details: read-out: I50
T1 sequence (Q920D2 whole entry): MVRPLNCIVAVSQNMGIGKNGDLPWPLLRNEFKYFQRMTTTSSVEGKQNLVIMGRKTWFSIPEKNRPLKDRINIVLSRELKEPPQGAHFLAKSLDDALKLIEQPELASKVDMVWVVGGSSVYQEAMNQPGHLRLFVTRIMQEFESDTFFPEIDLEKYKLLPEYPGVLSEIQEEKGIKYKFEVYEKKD

[2] = biological target: Dihydrofolate reductase (Neisseria gonorrhoeae, UniProt P04174); assay: Inhibitory activity against Dihydrofolate reductase in Neisseria gonorrhoeae; details: read-out: I50
[3] = tested on: Bordetella bronchiseptica; assay: Comparative in vitro antibacterial activity with trimethoprim against Bordetella bronchiseptica CN385; type: functional
[4] = tested on: Citrobacter freundii; assay: Comparative in vitro antibacterial activity with trimethoprim against Citrobacter freundii 2200/77; type: functional
[5] = tested on: Escherichia coli; assay: Comparative in vitro antibacterial activity with trimethoprim against Escherichia coli CN314; type: functional
[6] = tested on: Klebsiella aerogenes; assay: Comparative in vitro antibacterial activity with trimethoprim against Enterobacter aerogenes 2200/86; type: functional
[7] = tested on: Mycolicibacterium smegmatis; assay: Comparative in vitro antibacterial activity with trimethoprim against Mycobacterium smegmatis S 3254; type: functional
[8] = tested on: Proteus mirabilis; assay: Comparative in vitro antibacterial activity with trimethoprim against Proteus mirabilis S2409; type: functional
[9] = tested on: Proteus vulgaris; assay: Comparative in vitro antibacterial activity with trimethoprim against Proteus vulgaris CN329; type: functional
[10] = Comparative in vitro antibacterial activity with trimethoprim against Salmonella typhi CN512; type: functional, salmonella typhosa
[11] = tested on: Shigella flexneri; assay: Comparative in vitro antibacterial activity with trimethoprim against Shigella flexneri CN6007; type: functional
[12] = tested on: Serratia marcescens; assay: Comparative in vitro antibacterial activity with trimethoprim against Serratia marcescens CN2398; type: functional
[13] = tested on: Salmonella typhimurium; assay: Comparative in vitro antibacterial activity with trimethoprim against Salmonella Typhimurium S 8587; type: functional, Salmonella enterica subsp. enterica serovar Typhimurium; details: Salmonella enterica
[14] = tested on: Streptococcus pyogenes; assay: Comparative in vitro antibacterial activity of compound with trimethoprim against Streptococcus pyogenes CN10; type: functional
[15] = tested on: Staphylococcus aureus; assay: Comparative in vitro antibacterial activity with trimethoprim against Staphylococcus aureus CN491; type: functional
[16] = tested on: Enterococcus faecalis; assay: Comparative in vitro antibacterial activity with trimethoprim against Streptococcus faecalis CN478; type: functional
[17] = tested on: Streptococcus agalactiae; assay: Comparative in vitro antibacterial activity with trimethoprim against Streptococcus agalactiae CN1143; type: functional
[18] = tested on: Vibrio cholerae; assay: Comparative in vitro antibacterial activity with trimethoprim against Vibrio cholerae ATCC 14035; type: functional
[19] = tested on: Pasteurella multocida; assay: Comparative in vitro antibacterial activity with trimethoprim against Pasteurella multocida ATCC 6587; type: functional
[20] = tested on: Klebsiella pneumoniae; assay: Comparative in vitro antibacterial activity with trimethoprim against Klebsiella pneumoniae CN3632; type: functional

Dihydrofolate reductase (Neisseria gonorrhoeae, UniProt P04174), sequence (P04174 whole entry): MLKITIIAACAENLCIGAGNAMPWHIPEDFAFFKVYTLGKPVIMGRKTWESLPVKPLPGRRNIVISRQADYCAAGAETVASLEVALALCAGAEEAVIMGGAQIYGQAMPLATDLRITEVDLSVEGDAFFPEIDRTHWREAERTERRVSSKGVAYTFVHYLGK

Structure (SMILES) | pIC50 [1] | pIC50 [2] | MIC [3] [mg/L] | MIC [4] [mg/L] | MIC [5] [mg/L] | MIC [6] [mg/L] | MIC [7] [mg/L] | MIC [8] [mg/L] | MIC [9] [mg/L] | MIC [10] [mg/L] | MIC [11] [mg/L] | MIC [12] [mg/L] | MIC [13] [mg/L] | MIC [14] [mg/L] | MIC [15] [mg/L] | MIC [16] [mg/L] | MIC [17] [mg/L] | MIC [18] [mg/L] | MIC [19] [mg/L] | MIC [20] [mg/L]
CCOC(=O)C1CNc2c(OC)cc(Cc3cnc(N)nc3N)c(OC)c2C1 (centres undefined) | 3.85 | 5.72 | – | – | – | – | – | – | – | – | – | – | – | – | – | – | – | – | – | –
COc1cc(Cc2cnc(N)nc2N)cc2c1N(CCOC(C)=O)CCC2C (centres undefined) | 3.72 | 6.20 | 3 (≈ 7.78 µM) | 10 (≈ 25.9 µM) | 30 (≈ 77.8 µM) | 30 (≈ 77.8 µM) | 3 (≈ 7.78 µM) | 30 (≈ 77.8 µM) | 10 (≈ 25.9 µM) | 30 (≈ 77.8 µM) | 30 (≈ 77.8 µM) | > 10 | 30 (≈ 77.8 µM) | 10 (≈ 25.9 µM) | 3 (≈ 7.78 µM) | 1 (≈ 2.59 µM) | 1 (≈ 2.59 µM) | 10 (≈ 25.9 µM) | 10 (≈ 25.9 µM) | 10 (≈ 25.9 µM)
COc1cc(Cc2cnc(N)nc2N)cc2cccnc12 | 4.92 | – | 30 (≈ 107 µM) | 10 (≈ 35.5 µM) | 3 (≈ 10.7 µM) | 3 (≈ 10.7 µM) | 1 (≈ 3.55 µM) | 3 (≈ 10.7 µM) | 3 (≈ 10.7 µM) | 3 (≈ 10.7 µM) | 3 (≈ 10.7 µM) | 1 (≈ 3.55 µM) | 3 (≈ 10.7 µM) | 3 (≈ 10.7 µM) | 3 (≈ 10.7 µM) | 3 (≈ 10.7 µM) | 3 (≈ 10.7 µM) | 1 (≈ 3.55 µM) | 3 (≈ 10.7 µM) | 3 (≈ 10.7 µM)
COc1cc(Cc2cnc(N)nc2N)cc2c(C)ccnc12 | – | – | 3 (≈ 10.2 µM) | 3 (≈ 10.2 µM) | 1 (≈ 3.39 µM) | 1 (≈ 3.39 µM) | 0.3 (≈ 1.02 µM) | 1 (≈ 3.39 µM) | 1 (≈ 3.39 µM) | 1 (≈ 3.39 µM) | 1 (≈ 3.39 µM) | 1 (≈ 3.39 µM) | 3 (≈ 10.2 µM) | 1 (≈ 3.39 µM) | 0.3 (≈ 1.02 µM) | 1 (≈ 3.39 µM) | 1 (≈ 3.39 µM) | 0.3 (≈ 1.02 µM) | 1 (≈ 3.39 µM) | 1 (≈ 3.39 µM)
Cc1ccnc2ccc(Cc3cnc(N)nc3N)c(N)c12 | 4.82 | – | > 100 | 100 (≈ 357 µM) | 100 (≈ 357 µM) | 300 (≈ 1070 µM) | 100 (≈ 357 µM) | 30 (≈ 107 µM) | > 100 | 100 (≈ 357 µM) | 100 (≈ 357 µM) | > 10 | 100 (≈ 357 µM) | 30 (≈ 107 µM) | 30 (≈ 107 µM) | 10 (≈ 35.7 µM) | 100 (≈ 357 µM) | 100 (≈ 357 µM) | 300 (≈ 1070 µM) | 100 (≈ 357 µM)
CCN1CCC(C)c2cc(Cc3cnc(N)nc3N)ccc21 (centres undefined) | 4.42 | 6.16 | 100 (≈ 336 µM) | 100 (≈ 336 µM) | 100 (≈ 336 µM) | 100 (≈ 336 µM) | 10 (≈ 33.6 µM) | 30 (≈ 101 µM) | 100 (≈ 336 µM) | 100 (≈ 336 µM) | 100 (≈ 336 µM) | > 30 | 100 (≈ 336 µM) | – | 3 (≈ 10.1 µM) | 3 (≈ 10.1 µM) | 3 (≈ 10.1 µM) | 10 (≈ 33.6 µM) | 30 (≈ 101 µM) | 100 (≈ 336 µM)
COc1cc(Cc2cnc(N)nc2N)cc2c(C)cc(C)nc12 | 4.37 | – | 3 (≈ 9.7 µM) | 3 (≈ 9.7 µM) | 3 (≈ 9.7 µM) | 3 (≈ 9.7 µM) | 1 (≈ 3.23 µM) | 0.3 (≈ 0.97 µM) | 3 (≈ 9.7 µM) | 1 (≈ 3.23 µM) | 3 (≈ 9.7 µM) | 1 (≈ 3.23 µM) | 3 (≈ 9.7 µM) | 0.1 (≈ 0.323 µM) | 0.3 (≈ 0.97 µM) | 1 (≈ 3.23 µM) | 1 (≈ 3.23 µM) | 0.3 (≈ 0.97 µM) | 1 (≈ 3.23 µM) | 1 (≈ 3.23 µM)
Nc1ncc(Cc2ccc3ncccc3c2)c(N)n1 | 4.74 | – | 10 (≈ 39.8 µM) | 10 (≈ 39.8 µM) | 3 (≈ 11.9 µM) | 3 (≈ 11.9 µM) | 0.3 (≈ 1.19 µM) | 3 (≈ 11.9 µM) | 10 (≈ 39.8 µM) | 10 (≈ 39.8 µM) | 10 (≈ 39.8 µM) | 3 (≈ 11.9 µM) | 10 (≈ 39.8 µM) | 3 (≈ 11.9 µM) | 30 (≈ 119 µM) | 3 (≈ 11.9 µM) | 3 (≈ 11.9 µM) | 3 (≈ 11.9 µM) | 10 (≈ 39.8 µM) | 3 (≈ 11.9 µM)
CCOC(=O)C1CNc2c(cc(Cc3cnc(N)nc3N)cc2OC)C1 (centres undefined) | 4.36 | – | > 100 | 10 (≈ 28 µM) | 30 (≈ 83.9 µM) | 10 (≈ 28 µM) | 30 (≈ 83.9 µM) | > 30 | > 100 | 100 (≈ 280 µM) | 10 (≈ 28 µM) | > 10 | 30 (≈ 83.9 µM) | 3 (≈ 8.39 µM) | 30 (≈ 83.9 µM) | 30 (≈ 83.9 µM) | 10 (≈ 28 µM) | 30 (≈ 83.9 µM) | 30 (≈ 83.9 µM) | 100 (≈ 280 µM)
